Read-outs that look alike come from different tables or passages of the source.
Legend:
[1] = tested on: human gastric SGC7901 cancer cells; experiment: MTT assay, in vitro cytotoxicity / cell growth inhibition on SGC7901 cells; type: cell-based; details: for time dependent antiproliferative effect: 10 μM, 24 h and 72 h; for IC50: 72 h exposure, MTT
Experimental: (§1) Human gastric SGC7901 cancer and prostate PC3 cancer cell lines were provided by American Type Culture Collection (ATCC). Cells were cultured in Dulbecco's Modified Eagle Medium (DMEM) supplemented with 10% fetal calf serum (FCS), penicillin (100 kU L^−1) and streptomycin (0.1 g L^−1) at 37° C. in a 5% CO2-95% air atmosphere. MTT (3-(4,5-Dimethylthiazol-2-yl)-2,5-diphenyltetrazolium bromide, a yellow tetrazole) was purchased from Sigma Chemical Co, St. Louis, Mo., USA.
(§2) An MTT assay was used to obtain the number of living cells in the sample. Human gastric cancer SGC7901 and prostate cancer PC3 cells were seeded on 96-well plates at a predetermined optimal cell density, i.e. ca 6000 cells/100 μL per well in 96-well plates, to ensure exponential growth in the duration of the assay. After 24 h pre-incubation, the growth medium was replaced with the experimental medium containing the appropriate drug, using one of 1,2-diaminocyclohexane(1,3-propylenediamine)gold(III) chloride compounds 1, 2 and 3 or a control using water. Six duplicate wells were set up for each sample, and cells untreated with drug served as a control. In one set of culture plates, human gastric cancer SGC7901 and human prostate PC3 cells were treated with 10 μM compounds 1, 2 and 3 as the drug and the control (water) for 24, 48 and 72 h. In other sets, the compounds 1, 2 and 3 with different concentration, i.e. 10, 20 and 30 μM, were employed to determine the growth inhibitory effect for both PC3 and SGC7901 cells separately. After incubation, 10 μL MTT (6 g/L, Sigma) was added to each well and the incubation was continued for 4 h at 37° C. After removal of the medium, MTT stabilization solution [dimethylsulfoxide (DMSO):ethanol=1:1] was added to each well, and shaken for 10 min until all crystals were dissolved. Then, the optical density was detected in a micro plate reader at 550 nm wavelength using an Enzyme-Linked Immuno-Sorbent Assay (ELISA) reader. After being treated with the 1,2-diaminocyclohexane(1,3-propylenediamine)gold(III) chloride compounds 1, 2 and 3, the cell viability was examined by MTT assay. Each assay was performed in triplicate. […] These cells were treated with various concentrations of compounds 1, 2 and 3 for 24-72 h.
(§3) Human gastric SGC7901 cells and prostate PC3 cells were incubated with these compounds at fixed concentrations or with water as a control to assess the inhibitory effect on cell growth. […] The cell survival versus drug concentration is plotted. Cytotoxicity was evaluated in vitro with reference to the IC50 value. The half maximal inhibitory concentration (IC50) is a measure of the effectiveness of a compound to inhibit biological or biochemical functions. According to the FDA, IC50 represents the concentration of a drug/compound/complex that is required for 50% inhibition in vitro. It is evaluated from the survival curves as the concentration needed for a 50% reduction of survival. IC50 values are expressed in μM.
(§4) The in vitro cytotoxic effect of mixed ligand gold(III) diamine complexes against androgen-resistant prostate PC3 and human gastric SGC7901 cancer cells were studied using MTT assay. […] For that reason, we used different concentrations and a 3-day exposure protocol to determine the IC50 values for all three complexes. The in vitro cytotoxicity in terms of IC50 values of cisplatin for PC3 and SGC7901 cells was included for a comparison.

[2] = tested on: human prostate PC3 cancer cells; experiment: MTT assay, in vitro cytotoxicity / cell growth inhibition on PC3 cells; type: cell-based; details: for time dependent antiproliferative effect: 10 μM, 24 h and 72 h; for IC50: 72 h exposure, MTT
Experimental: as §1, §2, §3, §4

[3] = Cyclic voltammetry in reference phosphate buffer; type: physicochemical; details: 1.0 mM, phosphate buffer pH 7.4, platinum electrode, 50 mV/s, room temperature
Experimental: The electrochemical experiments performed at room temperature using a potentiostat (SP-300, BioLogic Science Instruments) controlled by EC-Lab v10.34 software package. The electrochemical experiments were performed at room temperature. All the measurements were performed on solutions deaerated by bubbling ultra-pure nitrogen for 15 min. The values of potential here reported were measured against a saturated calomel electrode (SCE). The cyclic voltammetry of the compounds 1, 2 and 3 were measured at scan rate of 50 mV/s on a reference buffer (40 mM phosphate, 4 mM NaCl, pH 7.4) using platinum as working electrode and graphite as a counter electrode with a concentration of 1.0 mM at room temperature. Ferrocene was used as pseudo reference to calibrate the working electrode. The couple Fe^III/II formal potential of ferrocene occur at E°′=+0.44 V (vs SCE) in 0.1 M Bu4NPF6 solution in acetonitrile which is similar to the report value under the same experimental condition [Hans J, Beckmann A, Krüger H J (1999) Eur. J. Inorg. Chem. 163-172—incorporated herein by reference in its entirety]. Conversion to values vs NHE was obtained upon adding +0.24 V to the corresponding SCE values.
The electrochemical behavior of compounds 1, 2 and 3 was investigated in a physiological environment through cyclic voltammetry (CV). […] Gold(III) complexes 1, 2 and 3 show one irreversible reduction process in which the controlled potential coulometry involves three electrons per mole. The occurrence of Au(III)/Au(O) reduction is visually indicated by the appearance of a thin gold layer deposited on the platinum electrode surface after exhaustive electrolysis (Ew, −0.7 V).

[4] = NMR stability in D2O and mixed DMSO-d6/D2O; type: physicochemical; details: DMSO-d6/D2O (v/v 2/1), room temperature, after 7 days
Experimental: Compounds 1, 2 and 3 were tested for their stability in water as well as mixed solvents of DMSO/water (2/1 v/v ratio) solution by ^13C and ^1H NMR. […] The hydroscopic nature of DMSO could unfortunately lead to stability issue [Ellson R, Stearns R, Mutz M, Brown C, Browning B, Harris D, Qureshi S. Shieh J, Wold D (2005) Comb. Chem. High Throughput Screen, 8:489-498—incorporated herein by reference in its entirety]. To investigate the structural stability of the compounds, NMR spectra of the compounds dissolved in D2O and mixed DMSO-d6/D2O (v/v: 2/1) solvents were obtained on immediate dissolution and latter at 24 h and after three days 72 h at room temperature in mixed DMSO-d6/D2O and at 37° C. in D2O . A minimum of 30 mg/mL of representative gold(III) compounds 1, 2 and 3 were subjected to ^1H and ^13C NMR spectra analysis followed by dissolution in D2O and DMSO-d6/D2O (v/v: 2/1, 1 mL). The duplicate samples were dissolved and immediately stored at room temperature and 37° C., respectively, and followed by determination of stability through NMR measurements for compounds 1, 2 and 3 overtime periods of 24 h and 72 h.
The NMR spectra of the complexes were obtained upon immediate dissolution to serve as reference spectra and later at 24 h and after 7 days at 37° C. in D2O and at room temperature in mixed DMSO-d6/D2O in order to determine their stability. […]

[5] = read-out: IC50 (concentration of sample required to reduce the cell growth of tumor cell line by 50%)
[6] = listed as complex 1, read-out: IC50 (concentration of sample required to reduce the cell growth of tumor cell line by 50%)
[7] = listed as complex 3, read-out: IC50 (concentration of sample required to reduce the cell growth of tumor cell line by 50%)

## NC1CCCCC1N.NCCCN.[Au+3].[Cl-].[Cl-].[Cl-] (racemic) [Complex 2, trans-(±)-1,2-diaminocyclohexane(1,3-propylenediamine)gold(III) chloride]
[1]
  time dependent antiproliferative effect: complex 3>complex 2>complex 1
[1]; [5]
  IC50: 10.9 µM
[2]
  time dependent antiproliferative effect: complex 3>complex 2>complex 1
[2]; [5]
  IC50: 10.2 µM
[3]
  Peak potential Ep vs. NHE for reduction: 0.25 V

## N.N.[Cl][Pt][Cl] [Cisplatin, reference compound]
[1]; [5]
  IC50: 7.3 µM
[2]; [5]
  IC50: 1.1 µM

## NC1CCCCC1N.NCCCN.[Au+3].[Cl-].[Cl-].[Cl-] (stereo not drawn) [Complex 1, cis-1,2-diaminocyclohexane(1,3-propylenediamine)gold(III) chloride]
[1]; listed as complex 1
  time dependent antiproliferative effect: complex 3>complex 2>complex 1
[1]; [6]
  IC50: 10.8 µM
[2]; 10 μM and 20 μM, 24 h
  concentration dependent cell growth inhibition: much better cell inhibition against PC3 cancer cell than complexes 3 and 2
[2]; listed as complex 1
  time dependent antiproliferative effect: complex 3>complex 2>complex 1
[2]; [6]
  IC50: 9.5 µM
[3]; listed as 1
  Peak potential Ep vs. NHE for reduction: 0.34 V

## NC1CCCCC1N.NCCCN.[Au+3].[Cl-].[Cl-].[Cl-] [Complex 3, (S,S)-(+)-1,2-diaminocyclohexane(1,3-propylenediamine)gold(III) chloride]
[1]
  time dependent antiproliferative effect: better cell inhibition against both PC3 and SGC7901 cell lines than complexes 1 and 2
[1]; listed as complex 3
  time dependent antiproliferative effect: complex 3>complex 2>complex 1
[1]; [7]
  IC50: 10.1 µM
[2]
  time dependent antiproliferative effect: better cell inhibition against both PC3 and SGC7901 cell lines than complexes 1 and 2
[2]; listed as complex 3
  time dependent antiproliferative effect: complex 3>complex 2>complex 1
[2]; [7]
  IC50: 9.1 µM
[4]
  dissociation of 1,3-propylenediamine: approximately 50%
[3]; listed as 3
  Peak potential Ep vs. NHE for reduction: 0.24 V

From patent publication US9585861B1, “Method for treating a cancer with a mixed ligand gold(III) complexes as anti-cancer agents” (KING FAHD UNIVERSITY OF PETROLEUM AND MINERALS, priority 2015, dated 2017)
